Assay results published in ChEMBL document CHEMBL1201861, “Genomics of Drug Sensitity in Cancer screening data, Wellcome Trust Sanger Institute”.

Legend:
Experiment in all cases: cells
Format in all cases: functional, cell-based, Homo sapiens
DJM-1 = settings: Homo sapiens, DJM-1;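 note: growth inhibition of human DJM-1 cells, read out by a cell viability assay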
Description: SANGER: Inhibition of human DJM-1 cell growth in a cell viability assay.

DMS-79 = settings: Homo sapiens, DMS-79;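 note: growth inhibition measured with a cell viability assay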
Description: SANGER: Inhibition of human DMS-79 cell growth in a cell viability assay.

DU-4475 = settings: Homo sapiens, DU-4475
Description: SANGER: Inhibition of human DU-4475 cell growth in a cell viability assay.

EW-1 = settings: Homo sapiens, EW-1
Description: SANGER: Inhibition of human EW-1 cell growth in a cell viability assay.

EW-18 = settings: Homo sapiens, EW-18;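 note: growth inhibition of EW-18 cells, read out by a cell viability assay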
Description: SANGER: Inhibition of human EW-18 cell growth in a cell viability assay.

GAK = settings: Homo sapiens, GAK;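 note: cell growth inhibition read out by a cell viability assay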
Description: SANGER: Inhibition of human GAK cell growth in a cell viability assay.

GB-1 = settings: Homo sapiens, GB-1;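 note: growth of GB-1 cells judged by a viability assay, IC50 marks the concentration inhibiting growth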
Description: SANGER: Inhibition of human GB-1 cell growth in a cell viability assay.

HCC 2998 = settings: Homo sapiens, HCC 2998;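 note: growth inhibition of human HCC2998 cells, measured with a cell viability read-out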
Description: SANGER: Inhibition of human HCC2998 cell growth in a cell viability assay.

HDLM-2 = settings: Homo sapiens, HDLM-2;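 note: cell viability assay measuring suppression of HDLM-2 proliferation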
Description: SANGER: Inhibition of human HDLM-2 cell growth in a cell viability assay.

IST-MEL1 = settings: Homo sapiens, IST-MEL1;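 note: growth inhibition of the cell line, read out with a cell viability assay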
Description: SANGER: Inhibition of human IST-MEL1 cell growth in a cell viability assay.

K562 = settings: Homo sapiens, K562
Description: SANGER: Inhibition of human K-562 cell growth in a cell viability assay.

KALS-1 = settings: Homo sapiens, KALS-1;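 note: growth inhibition of KALS-1 cells, determined with a cell viability assay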
Description: SANGER: Inhibition of human KALS-1 cell growth in a cell viability assay.

KINGS-1 = settings: Homo sapiens, KINGS-1;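 note: cell viability assay measuring suppression of KINGS-1 cell growth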
Description: SANGER: Inhibition of human KINGS-1 cell growth in a cell viability assay.

L-363 = settings: Homo sapiens, L-363
Description: SANGER: Inhibition of human L-363 cell growth in a cell viability assay.

LOX IMVI = settings: Homo sapiens, LOX IMVI
Description: SANGER: Inhibition of human LOXIMVI cell growth in a cell viability assay.

LS-123 = settings: Homo sapiens, LS-123
Description: SANGER: Inhibition of human LS-123 cell growth in a cell viability assay.

MOLT-4 = settings: Homo sapiens, MOLT-4;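 note: growth inhibition of MOLT-4 cells, determined with a cell viability readout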
Description: SANGER: Inhibition of human MOLT-4 cell growth in a cell viability assay.

MS-1 = settings: Homo sapiens, MS-1;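 note: growth inhibition of MS-1 cells, read out by cell viability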
Description: SANGER: Inhibition of human MS-1 cell growth in a cell viability assay.

Mo = settings: Homo sapiens, Mo
Description: SANGER: Inhibition of human Mo-T cell growth in a cell viability assay.

NB10 = settings: Homo sapiens, NB10;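 note: growth inhibition of NB10 cells, read out by a cell viability assay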
Description: SANGER: Inhibition of human NB10 cell growth in a cell viability assay.

NCI-H1299 = settings: Homo sapiens, NCI-H1299;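 note: growth inhibition of human NCI-H1299 cells, read out by a cell viability assay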
Description: SANGER: Inhibition of human NCI-H1299 cell growth in a cell viability assay.

NCI-H1304 = settings: Homo sapiens, NCI-H1304;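 note: growth inhibition of the cancer cell line, measured in a cell viability assay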
Description: SANGER: Inhibition of human NCI-H1304 cell growth in a cell viability assay.

NCI-H1581 = settings: Homo sapiens, NCI-H1581;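 note: cell growth inhibition read out by a viability assay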
Description: SANGER: Inhibition of human NCI-H1581 cell growth in a cell viability assay.

NCI-H1770 = settings: Homo sapiens, NCI-H1770;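 note: growth inhibition of NCI-H1770 cells determined with a viability readout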
Description: SANGER: Inhibition of human NCI-H1770 cell growth in a cell viability assay.

NCI-H526 = settings: Homo sapiens, NCI-H526;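 note: growth inhibition of the human NCI-H526 cell line, measured by a cell viability assay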
Description: SANGER: Inhibition of human NCI-H526 cell growth in a cell viability assay.

OCI-AML2 = settings: Homo sapiens, OCI-AML2;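 note: growth inhibition of OCI-AML2 cells, read out with a cell viability assay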
Description: SANGER: Inhibition of human OCI-AML2 cell growth in a cell viability assay.

OCUB-M = settings: Homo sapiens, OCUB-M;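 note: growth inhibition of the cancer cell line, read out through a cell viability assay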
Description: SANGER: Inhibition of human OCUB-M cell growth in a cell viability assay.

OVCAR-4 = settings: Homo sapiens, OVCAR-4;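 note: growth inhibition of human OVCAR-4 cells, measured with a cell viability assay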
Description: SANGER: Inhibition of human OVCAR-4 cell growth in a cell viability assay.

PSN1 = settings: Homo sapiens, PSN1;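 note: suppression of growth of human PSN1 cells, read out by a cell viability assay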
Description: SANGER: Inhibition of human PSN1 cell growth in a cell viability assay.

RH-1 = settings: Homo sapiens, RH-1;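 note: growth inhibition of human RH-1 cells, read out with a cell viability assay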
Description: SANGER: Inhibition of human RH-1 cell growth in a cell viability assay.

RPMI-8226 = settings: Homo sapiens, RPMI-8226
Description: SANGER: Inhibition of human RPMI-8226 cell growth in a cell viability assay.

RPMI-8866 = settings: Homo sapiens, RPMI-8866
Description: SANGER: Inhibition of human RPMI-8866 cell growth in a cell viability assay.

RXF 393 = settings: Homo sapiens, RXF 393;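 note: growth inhibition of human RXF 393 cells, read out with a cell viability assay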
Description: SANGER: Inhibition of human RXF393 cell growth in a cell viability assay.

Ramos-2G6-4C10 = settings: Homo sapiens, Ramos-2G6-4C10;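 note: growth inhibition of the cell line, measured by a cell viability read-out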
Description: SANGER: Inhibition of human Ramos-2G6-4C10 cell growth in a cell viability assay.

SCC-15 = settings: Homo sapiens, SCC-15;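 note: growth inhibition of SCC-15 cells, read out with a cell viability assay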
Description: SANGER: Inhibition of human SCC-15 cell growth in a cell viability assay.

SCH = settings: Homo sapiens, SCH;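 note: growth inhibition of human SCH cells, read out in a cell viability assay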
Description: SANGER: Inhibition of human SCH cell growth in a cell viability assay.

SF-268 = settings: Homo sapiens, SF-268;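 note: growth inhibition of SF-268 cells determined with a cell viability assay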
Description: SANGER: Inhibition of human SF268 cell growth in a cell viability assay.

SK-MEL-2 = settings: Homo sapiens, SK-MEL-2;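 note: growth inhibition of human SK-MEL-2 cells measured with a cell viability assay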
Description: SANGER: Inhibition of human SK-MEL-2 cell growth in a cell viability assay.

SW 954 = settings: Homo sapiens, SW 954;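 note: growth inhibition of SW954 human cancer cells, read out as cell viability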
Description: SANGER: Inhibition of human SW954 cell growth in a cell viability assay.

SW982 = settings: Homo sapiens, SW982;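 note: growth inhibition of SW982 cells, read out with a cell viability assay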
Description: SANGER: Inhibition of human SW982 cell growth in a cell viability assay.

BV-173 = settings: Homo sapiens, BV-173
Description: SANGER: Inhibition of human BV-173 cell growth in a cell viability assay.

TE-6 = settings: Homo sapiens, TE-6;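 note: growth inhibition of TE-6 cells, read out with a cell viability assay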
Description: SANGER: Inhibition of human TE-6 cell growth in a cell viability assay.

TGBC24TKB = settings: Homo sapiens, TGBC24TKB;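 note: growth inhibition of human TGBC24TKB cells, read out with a cell viability assay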
Description: SANGER: Inhibition of human TGBC24TKB cell growth in a cell viability assay.

U-266 = settings: Homo sapiens, U-266
Description: SANGER: Inhibition of human U-266 cell growth in a cell viability assay.

UACC-257 = settings: Homo sapiens, UACC-257
Description: SANGER: Inhibition of human UACC-257 cell growth in a cell viability assay.

no-11 = settings: Homo sapiens;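 note: growth inhibition of human NO-11 cells, read out with a cell viability assay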
Description: SANGER: Inhibition of human no-11 cell growth in a cell viability assay.

CGTH-W-1 = settings: Homo sapiens, CGTH-W-1;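 note: growth inhibition of human CGTH-W-1 cells measured by cell viability assay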
Description: SANGER: Inhibition of human CGTH-W-1 cell growth in a cell viability assay.

`CCC/C=C/C=C/C(=O)O[C@H]1/C(=C/C(=O)OC)C[C@H]2C[C@H]([C@@H](C)O)OC(=O)C[C@H](O)C[C@@H]3C[C@H](OC(C)=O)C(C)(C)[C@](O)(C[C@@H]4C/C(=C/C(=O)OC)C[C@H](/C=C/C(C)(C)[C@]1(O)O2)O4)O3` [BRYOSTATIN 1] gave an IC50 (DJM-1) of over 8 nM, an IC50 (DMS-79) of over 8 nM and an IC50 (DU-4475) of over 8 nM. For the same compound, the IC50 (EW-1) was over 8 nM, the IC50 (EW-18) was over 8 nM and the IC50 (GAK) was over 8 nM. It also gave an IC50 (GB-1) of over 8 nM, an IC50 (HCC 2998) of over 8 nM and an IC50 (HDLM-2) of over 8 nM. For the same compound, the IC50 (IST-MEL1) was over 8 nM, the IC50 (K562) was over 8 nM and the IC50 (KALS-1) was over 8 nM. The IC50 (KINGS-1) was over 8 nM, the IC50 (L-363) was over 8 nM and the IC50 (LOX IMVI) was over 8 nM. The IC50 (LS-123) was over 8 nM, the IC50 (MOLT-4) was over 8 nM and the IC50 (MS-1) was over 8 nM. The IC50 (Mo) was over 8 nM, the IC50 (NB10) was over 8 nM and the IC50 (NCI-H1299) was over 8 nM. The IC50 (NCI-H1304) was over 8 nM, the IC50 (NCI-H1581) was over 8 nM and the IC50 (NCI-H1770) was over 8 nM. For the same compound, the IC50 (NCI-H526) was over 8 nM, the IC50 (OCI-AML2) was over 8 nM and the IC50 (OCUB-M) was over 8 nM. It also gave an IC50 (OVCAR-4) of over 8 nM, an IC50 (PSN1) of over 8 nM and an IC50 (RH-1) of over 8 nM. It also gave an IC50 (RPMI-8226) of over 8 nM, an IC50 (RPMI-8866) of over 8 nM and an IC50 (RXF 393) of over 8 nM. For the same compound, the IC50 (Ramos-2G6-4C10) was over 8 nM, the IC50 (SCC-15) was over 8 nM and the IC50 (SCH) was over 8 nM. The IC50 (SF-268) was over 8 nM, the IC50 (SK-MEL-2) was over 8 nM and the IC50 (SW 954) was over 8 nM. It also gave an IC50 (SW982) of over 8 nM, an IC50 (BV-173) of over 8 nM and an IC50 (TE-6) of over 8 nM. For the same compound, the IC50 (TGBC24TKB) was over 8 nM, the IC50 (U-266) was over 8 nM and the IC50 (UACC-257) was over 8 nM. It also gave an IC50 (no-11) of over 8 nM and an IC50 (CGTH-W-1) of over 8 nM.

`COc1cccc2c1C(=O)c1c(O)c3c(c(O)c1C2=O)C[C@@](O)(C(=O)CO)C[C@@H]3O[C@H]1C[C@H](N)[C@H](O)[C@H](C)O1` [DOXORUBICIN] gave an IC50 (DJM-1) of 102 nM, an IC50 (DMS-79) of over 1020 nM and an IC50 (DU-4475) of 12.1 nM. The IC50 (EW-1) was 61.3 nM, the IC50 (EW-18) was 251 nM and the IC50 (GAK) was 257 nM. The IC50 (GB-1) was 213 nM, the IC50 (HCC 2998) was 17.4 nM and the IC50 (HDLM-2) was 569 nM. It also gave an IC50 (IST-MEL1) of 44.8 nM, an IC50 (K562) of 386 nM and an IC50 (KALS-1) of 29.3 nM. It also gave an IC50 (KINGS-1) of 1020 nM, an IC50 (L-363) of 324 nM and an IC50 (LOX IMVI) of 389 nM. For the same compound, the IC50 (LS-123) was 18.5 nM, the IC50 (MOLT-4) was 22.9 nM and the IC50 (MS-1) was 253 nM. The IC50 (Mo) was 805 nM, the IC50 (NB10) was 188 nM and the IC50 (NCI-H1299) was 37.6 nM. For the same compound, the IC50 (NCI-H1304) was 321 nM, the IC50 (NCI-H1581) was 981 nM and the IC50 (NCI-H1770) was 133 nM. It also gave an IC50 (NCI-H526) of 50 nM, an IC50 (OCI-AML2) of 45 nM and an IC50 (OCUB-M) of 15.2 nM. It also gave an IC50 (OVCAR-4) of 157 nM, an IC50 (PSN1) of 11.2 nM and an IC50 (RH-1) of 6.73 nM. For the same compound, the IC50 (RPMI-8226) was 213 nM, the IC50 (RPMI-8866) was 192 nM and the IC50 (RXF 393) was 335 nM. For the same compound, the IC50 (Ramos-2G6-4C10) was 295 nM, the IC50 (SCC-15) was 188 nM and the IC50 (SCH) was over 1020 nM. The IC50 (SF-268) was 92.4 nM, the IC50 (SK-MEL-2) was 230 nM and the IC50 (SW 954) was 16.9 nM. For the same compound, the IC50 (SW982) was 6.05 nM, the IC50 (BV-173) was 251 nM and the IC50 (TE-6) was 470 nM. The IC50 (TGBC24TKB) was over 1020 nM, the IC50 (U-266) was 451 nM and the IC50 (UACC-257) was 362 nM. The IC50 (no-11) was 322 nM and the IC50 (CGTH-W-1) was 53.5 nM.

Compound `Nc1ccn([C@@H]2O[C@H](CO)[C@@H](O)C2(F)F)c(=O)n1` [GEMCITABINE] has an IC50 (DJM-1) of 21.6 nM, an IC50 (DMS-79) of over 1020 nM and an IC50 (DU-4475) of 3.14 nM. For the same compound, the IC50 (EW-1) was 2.22 nM, the IC50 (EW-18) was 72.8 nM and the IC50 (GAK) was 373 nM. For the same compound, the IC50 (GB-1) was 5.84 nM, the IC50 (HCC 2998) was 6.34 nM and the IC50 (HDLM-2) was over 1020 nM. For the same compound, the IC50 (IST-MEL1) was under 4 nM, the IC50 (K562) was 333 nM and the IC50 (KALS-1) was 21.4 nM. For the same compound, the IC50 (KINGS-1) was over 1020 nM, the IC50 (L-363) was 95.5 nM and the IC50 (LOX IMVI) was 1.6 nM. The IC50 (LS-123) was 40.3 nM, the IC50 (MOLT-4) was 65.3 nM and the IC50 (MS-1) was 46.3 nM. It also gave an IC50 (Mo) of over 1020 nM, an IC50 (NB10) of 24.4 nM and an IC50 (NCI-H1299) of under 4 nM. It also gave an IC50 (NCI-H1304) of 385 nM, an IC50 (NCI-H1581) of over 1020 nM and an IC50 (NCI-H1770) of 55 nM. It also gave an IC50 (NCI-H526) of 110 nM, an IC50 (OCI-AML2) of under 4 nM and an IC50 (OCUB-M) of 10 nM. The IC50 (OVCAR-4) was 625 nM, the IC50 (PSN1) was under 4 nM and the IC50 (RH-1) was under 4 nM. It also gave an IC50 (RPMI-8226) of 16 nM, an IC50 (RPMI-8866) of 95.2 nM and an IC50 (RXF 393) of over 1020 nM. The IC50 (Ramos-2G6-4C10) was 661 nM, the IC50 (SCC-15) was 121 nM and the IC50 (SCH) was over 1020 nM. For the same compound, the IC50 (SF-268) was under 4 nM, the IC50 (SK-MEL-2) was over 1020 nM and the IC50 (SW 954) was 23.7 nM. It also gave an IC50 (SW982) of under 4 nM, an IC50 (BV-173) of 17.3 nM and an IC50 (TE-6) of 250 nM. The IC50 (TGBC24TKB) was over 1020 nM, the IC50 (U-266) was 608 nM and the IC50 (UACC-257) was 364 nM. The IC50 (no-11) was 737 nM and the IC50 (CGTH-W-1) was 2.72 nM.
